In patent US11779546B2, “Disassembly of cholesterol crystals” (IP SCIENCE LIMITED, priority 2018, dated 2023):
Entries after “also recorded” stand apart in the source; their conditions may differ.

Legend:
[1] = Disassembly of crystallised cholesterol (Sigma) in ethanol solutions of test substance; type: physicochemical; conditions: 100 mg crystallised cholesterol; for ratio of carotenoid to cholesterol at which complete disaggregation of the crystals was observed: 20 ml ethanol, 20-22° C., gentle stirring for a couple of minutes; for effect on size or number of the cholesterol crystals: 20 ml ethanol solutions with different concentrations, room temperature
Method: (§1) To 100 mg of crystallised cholesterol (Sigma) 20 ml of ethanol solutions with different concentrations of lycopene were added. As a control, 20 ml of the same ethanol was used but without any lycopene. After gentle stirring for a couple of minutes, under the room temperature of about 20-22° C., recording of the results was made.
as §1, with “lutein” for “lycopene”, “lutein.” for “lycopene.”, “at a” for “under the”
as §1, with “a number of biologically active hydrophobic substances and oils” for “lycopene”, “additives.” for “lycopene.”, “at a” for “under the”, “[…],” for “20-22° C.,”

[2] = Control: atherosclerotic abdominal aorta pieces containing calcium phosphate crystals incubated with lycopene; set-up: species or system human; conditions: lycopene-ethanol-PBS, 13 days, room temperature
Method: (§2) This was in terms of their stage of development, with prominently featured cholesterol crystals of similar size, embedded into the atheromatous tissues of the aorta wall. As a control material we collected pieces of the atherosclerotic abdominal aorta containing calcium phosphate crystals.
(§3) Firstly, an ethanol solution 1 μg/ml of lycopene was prepared. It was then diluted by PBS 10 fold. As a control, a solution was made with the same ratio ethanol to PBS but without lycopene. Then pieces of aorta were incubated, in light protected containers at the room temperature of about […] for 13 days.

[3] = Disassembly of cholesterol crystals in the arterial wall (pieces of atherosclerotic abdominal aorta incubated 13 days); set-up: species or system human; conditions: 1 μg/ml lycopene in ethanol diluted by PBS 10 fold, room temperature
From the text: It was important to confirm whether carotenoids, and lycopene in particular, can affect folding of cholesterol crystals, which are not just synthesized by a manufacturer, but produced naturally, and particularly those, which are developed during pathological process in human. For this purpose, we used pieces of atherosclerotic abdominal aorta, which were obtained during a combined vascular graft and by-pass surgery.
as §2, §3

[4] = Changes of physical properties of cholesterol crystals formed in presence of lycopene; type: physicochemical
From the text: In a range of experiments where ratio of cholesterol to lycopene varied, from 1,000 to at least 10,000,000 molecules of the former to 1 molecule of the latter, noticeable changes in the physical properties of crystals were observed.
In all control experiments, cholesterol crystallised into a plate-like crystals, see FIG. 2B and FIG. 2D. Sometimes they could create a thick flat plate of few centimetres across, like the one on the bottom of the glass in the experiment 2, FIG. 2C. However, when lycopene was present in the medium a formation of a new type of crystals was observed.
Under the light and confocal microscopy these difference between two types of cholesterol crystals, in size and shape, are more evident (FIGS. 5A-F and 6A-B).

[5] = Prevention of or interference into the formation of cholesterol crystals (evaporation of ethanol cholesterol solution); type: physicochemical; conditions: for effect on rate / formation of cholesterol crystallisation: less than one molecule of lycopene per million molecules of cholesterol
Method: A solution of 198 ml of 1 g of cholesterol (Sigma) in 99% ethanol was divided in two equal parts. In one part 1 ml of ethanol containing […] of the dissolved lycopene was added. This provided ratio of lycopene to cholesterol as 1:10^6. Into the other part, the control, 1 ml of the ethanol itself was added. Then both samples were left in the dark room for evaporation under 20-22° C. Recording of the status of the both samples were made at least on a daily or even shorter intervals.

Compound: CC1=C[C@H](O)CC(C)(C)[C@H]1/C=C/C(C)=C/C=C/C(C)=C/C=C/C=C(C)/C=C/C=C(C)/C=C/C1=C(C)C[C@@H](O)CC1(C)C [lutein]
- ratio of carotenoid to cholesterol at which complete disaggregation of the crystals was observed [1]: 1 to 20,000

Compound: CC(C)=CCC/C(C)=C/C=C/C(C)=C/C=C/C(C)=C/C=C/C=C(C)/C=C/C=C(C)/C=C/C=C(\C)CCC=C(C)C [lycopene]
- effect on size or shape of calcium phosphate crystals [2]: did not affect size or shape of calcium phosphate crystals
- size of the remaining crystalloid structures [3]: reduced by at least two-fold
- size of the surrounding cholesterol-rich atheromatous mass of the lesion [3]: reduced by about two-fold
- number of crystalloid structures in the lesion at end of incubation ([3]; three structures at start): only two
- incorporation into newly formed cholesterol crystal structures [4]: able to incorporate into newly formed crystal structures
- type (size and shape) of cholesterol crystals formed ([4]; cholesterol to lycopene 1,000 to at least 10,000,000 : 1, controls plate-like crystals): significantly smaller and in a shape of needle- or narrow tube-like crystals; also recorded: needle-like crystals
- ratio of carotenoid to cholesterol at which complete disaggregation of the crystals was observed [1]: 1 to 100,000
- effect on rate / formation of cholesterol crystallisation [5]: significantly affect the rate of its crystallisation
- effect on rate / formation of cholesterol crystallisation ([5]; listed as Lycopene): prevents or slows down formation of cholesterol crystallisation
- day by which crystallisation was completed ([5]; lycopene to cholesterol 1:10^6, ethanol evaporation in the dark, 20-22° C., control: 12th day): ≤ 14 days
- day on which floating cholesterol crystals started to appear ([5]; lycopene to cholesterol 1:10^6, ethanol evaporation in the dark, 20-22° C., control: after two days): 6 days

Compound: tocopherol [reference compound]
- effect on size or number of the cholesterol crystals [1]: ineffective

Compound: phosphatidylcholine [reference compound]
- effect on size or number of the cholesterol crystals [1]: not able to affect cholesterol crystals
